Values joined by “and” are separate entries in the source; they are usually repeats but may differ in a detail not shown here. Equal entries are not always repeated. “Also recorded” adds a separate entry of the source.
Legend:
[1] = Toxicity study in BALB/c mice (daily i.p. 14 days; blood counts and chemistry profiles); format: in vivo; conditions: daily i.p. doses of up to 20 mg/kg for 14 days
Description: IM (Cayman Chemicals, Ann Arbor, MI) was dissolved in 10% Cremophor EL (Sigma, St. Louis, MO). Adult, female BALB/c mice were treated with IM (2.5, 5, and 20 mg/kg; n = 5 per dose) or its vehicle (10% Cremophor EL; n = 5) daily, via intraperitoneal (i.p.) injections, for 14 days. We used mice from a single sex to reduce potential variability of the data, although gender is not expected to have an effect on the toxicity of IM. On day 14, animals were anesthesized with ketamine-xylazine (100-150mg/kg Ketamine + 10-16mg/kg Xylazine) and, after confirming (via toe pinch) that a deep surgical plane of anesthesia had been reached, blood was collected by cardiac puncture. Blood samples were submitted for measurements of blood chemistry profiles and of blood counts.
There is currently limited information on IM toxicity. […] To better evaluate the toxicity of IM we conducted toxicity studies following standard protocols. We used BALB/c mice because, unlike NSG mice, are fully immunocompetent and thus more suitable for assessing hematological toxicities. BALB/c mice were treated with IM (2.5, 5 and 20 mg/kg; n = 5 per dose) or its vehicle (n = 5) daily, via i.p. injections, for 14 days. […] Mice were monitored daily for morbidity and mortality. […] The other 19 mice remained healthy and had no evidence of morbidity. […] Creatinine levels below reference ranges may be due to sample hemolysis. […]

HIV BaL = assay: Antiviral activity of IM during chronic HIV infection in HSC-NSG mice; format: in vivo
Text: NSG mice were humanized at the age of 2–3 days, following whole body irradiation ([…]) and hepatic injection of 1.2x10^5 human cord blood-derived CD34+ cells (Lonza, Walkersville, MD). At week 12, mice were checked for human cell reconstitution by double staining with FITC-conjugated antihuman CD45 antibody (BD Pharmingen) and APC-conjugated antimouse CD45 antibody (BD Pharmingen). Mice were considered successfully transplanted if they had ≥ 5% of human CD45+ cells in peripheral blood. Successfully transplanted mice were infected, via i.p. injection, with 15,000 TCID50 units of the CCR5-tropic HIV reference strain BaL.
Plasma HIV RNA levels were quantified by an in-house real-time RT PCR using HIV Gag primers SK38/SK39 and SYBR green dyes, as in our previous studies. The assay has a sensitivity of 150 copies HIV RNA/40μL plasma. Percentages of human CD4+ and CD8+ T cells were determined by flow cytometry analysis using fluorochrome labeled antibodies against human CD4 (clone SK3), CD8 (SK1), CD3 (clone SK7), and CD45 (clone 2D1) (BD Biosciences). Data were acquired in a BD FACSCalibur flow cytometer and analyzed using FLowJo software (v. 9.7.7). CD4/CD8 ratios were calculated and plotted using GraphPad Prism 5.0 software.
We next evaluated the antiviral activity of IM in HSC-NSG mice chronically infected with HIV. For this, 12-week old HSC-NSG mice were infected with HIV BaL. Five weeks after infection, animals initiated daily i.p. treatment with IM (5 and 20 mg/kg/day) or vehicle control for 15 weeks. Each experimental and control group had 5 mice. Viral replication was monitored by measuring HIV RNA in plasma by RT-PCR. Blood CD4/CD8 ratios were measured by Flow Cytometry. Mice treated with 5 mg/kg dose had modest, but significant, declines in plasma HIV RNA during the 15-week treatment period (Fig 2a). By the end of the study, plasma HIV RNA levels were 2.1 log10 units lower in mice treated with 5 mg/kg IM compared to controls. The CD4/CD8 ratios increased to similar levels in IM (5 mg/kg) and control groups for most of the study duration.
Fig 2 IM reduces HIV viremia in HSC-NSG chronically infected with HIV. Twelve-week old HSC-NSG mice were infected with HIV BaL. Five weeks after infection, treatment was initiated at IM doses of 0 (vehicle alone) and 5 mg/kg/day. Each group had 5 mice. Treatment was continued for 15 weeks. Blood samples collected at the indicated time points were evaluated for plasma HIV RNA levels by quantitative RT-PCR (A), and for CD4/CD8 ratios by Flow Cytometry Analysis (B). At each time point, data were tested for statistical significant differences by Mann-Whitney U tests (GraphPad Prism Software, La Jolla, CA); P < 0.05 was considered significant. Shaded boxes indicate duration of treatment.

[2] = HIV BaL, 20 mg/kg/day i.p., 5 weeks, limited data (S1 Fig)

For `O=C1Nc2ccccc2/C1=C1/Nc2ccccc2/C1=N\O` [IM, Indirubin 3’-monoxime], the “hematologic, renal or liver toxicity” value [1] was “not associated with hematologic, renal or liver toxicity; also recorded: no hematologic, liver or renal toxicity”, the “human T cells in blood” value (HIV BaL; 20 mg/kg/day i.p., euthanized after 5 weeks of treatment) was “progressive losses in human T cells in blood” and the “CD4/CD8 ratios by the end of the study vs control” value (HIV BaL; HIV BaL chronic infection, 5 mg/kg/day i.p. for 15 weeks) was “significantly higher”. For the same molecule, the “plasma HIV RNA levels lower compared to controls by the end of the study” value (HIV BaL; HIV BaL chronic infection, 5 mg/kg/day i.p. for 15 weeks, 5 mg/kg/day) was 2.1 log10 units and ~ 2 log10 units, the “increases in CD4/CD8 ratios” value (HIV BaL; [2]) was “no consistent inhibition of plasma HIV RNA or increases in CD4/CD8 ratios” and the “inhibition of plasma HIV RNA” value (HIV BaL; [2]) was “no consistent inhibition of plasma HIV RNA”.

— publication PMC5560554, “Targeting of CDK9 with indirubin 3’-monoxime safely and durably reduces HIV viremia in chronically infected humanized mice” (PLoS ONE, 2017)
